“And” between values parts separate entries of the source, which are not always exact repeats. Equal values may be shown once.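 Protocol summary: plate cells (96-well), add compound at 5 concentrations, incubate 48 h, interpolate endpoints linearly. The concentration for 50% growth inhibition is given as GI50. Definition used: TGI = concentration required for complete inhibition of growth.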
Columns and labels:
Assay in all cases: NCI-60 cell line screen, 48 h
[1] = tested on: COLO 205 colon
[2] = tested on: HOP-92 NSCLC
[3] = tested on: NCI/ADR-RES ovarian
[4] = tested on: OVCAR-3 ovarian
[5] = tested on: PC-3 prostate
[6] = tested on: SF-268 CNS
[7] = tested on: T-47D breast
[8] = tested on: U251 CNS
[9] = tested on: UACC-62 melanoma
[10] = tested on: UO-31 renal

SMILES | GI50 [1] [nM] | TGI [1] | GI50 [2] [nM] | TGI [2] [µM] | GI50 [3] [µM] | TGI [3] | GI50 [4] [nM] | TGI [4] | GI50 [5] [µM] | TGI [5] | GI50 [6] [µM] | TGI [6] | GI50 [7] [µM] | TGI [7] | GI50 [8] [nM] | TGI [8] [µM] | GI50 [9] [nM] | TGI [9] | GI50 [10] [nM] | TGI [10]
Cc1c(Cl)cccc1C(=O)Nc1nc2c(s1)CN(C(=O)c1ccc(C(F)(F)F)cc1)CC2 | 164 | 0.762 µM | 877 | 36.4 | 0.0418 | 2.31 µM | 58.3 | 0.347 µM | 0.117 | > 50 µM | 0.565 | > 50 µM | 0.199 | 28.8 µM | 145 | > 35.6 | 130 | > 50 µM | 507 | > 50 µM
Cc1cc2c(cc1Cl)SC1=NN(C)C(C)N1S2(=O)=O (stereo unspecified) | > 100000 | > 100 µM | 19300 | 80.9 | > 100 | > 100 µM | > 100000 | > 100 µM | > 100 | > 100 µM | 98.1 | > 100 µM | 95.8 | > 100 µM | > 100000 | > 100 | > 100000 | > 100 µM | > 100000 | > 100 µM
COc1cccc(-c2c[nH]c3c(N/N=C/c4ccncc4)ncnc23)c1 | 1200 | 4.39 µM | 4960 | 19.2 | 4.54 | > 19.3 µM | 1120 | 6.26 µM | 4.53 | > 25 µM | 3.44 | 13.3 µM | 3.07 | > 15.5 µM | 2130 | 7.94 | 2800 | 6.31 µM | 1750 | > 23.7 µM
NCCCC[C@@H]1NC(=O)[C@H]2CCCN2C(=O)[C@H](Cc2ccccc2)CNC(=O)[C@H](Cc2ccccc2)NC1=O | > 37500 | > 37.5 µM | > 37500 | > 37.5 | > 37.5 | > 37.5 µM | > 37500 | > 37.5 µM | > 37.5 | > 37.5 µM | > 37.5 | > 37.5 µM | > 37.5 | > 37.5 µM | > 37500 | > 37.5 | > 37500 | > 37.5 µM | > 37500 | > 37.5 µM
COc1ccc2c(c1)c(CC(=O)[Se]C)c(C)n2C(=O)c1ccc(Cl)cc1 | > 608 | > 1 µM | > 336 | > 0.533 | > 0.237 | > 0.695 µM | > 367 | > 0.583 µM | > 0.337 | > 0.897 µM | > 0.199 | > 0.53 µM |  | > 1 µM | > 326 | > 0.573 | > 445 | > 1 µM |  | > 0.523 µM
CC1=C(C(=O)Nc2ccc3n[nH]c(C)c3c2)C(c2ccc(C(F)(F)F)cc2)CC(=O)N1 (stereo unspecified) | 7640 | > 19.1 µM | 11.7 | 1.46 | > 25 | > 25 µM | > 25000 | > 25 µM | > 25 | > 25 µM | 8.59 | > 25 µM | > 25 | > 25 µM | > 25000 | > 25 | 16000 | > 25 µM | 3910 | > 25 µM
COc1ccc(CCN2CC=Cn3c2nc2ccccc2c3=O)cc1 | 26.7 | 0.0847 µM | 127 | 29.5 | 0.0179 | 0.77 µM | 21.4 | 0.0605 µM | 0.0308 | > 100 µM | 0.104 | > 60.8 µM | 16 | > 100 µM | 36.8 | > 100 | 232 | > 100 µM | 68.3 | > 100 µM
Cc1ccccc1OCC(O)CN1CCN(c2ccc(Cl)cc2)CC1 (stereo unspecified) | 15700 | 30.3 µM | 10000 | 22 | 14.8 | 29.5 µM | 16600 | 31.7 µM | 11.7 | 25.9 µM | 17.4 | 34.3 µM | 18.5 | 47.3 µM | 18700 | 33.7 | 13800 | 27.5 µM | 6750 | 20.8 µM
COc1cc2nc(N3CCCC3)nc(NCc3ccccc3)c2cc1OC | 1450 | 3.14 µM | 2360 | 14 | 3.71 | 18.7 µM | 2270 | 5.53 µM | 3.08 | 15.2 µM | 8.31 | 23.9 µM | 1.87 | 4.29 µM | 1880 | 3.92 | 2280 | 5.39 µM | 1380 | 3.21 µM
COC1CC(O[C@H]2CC[C@@]3(C)[C@H](CC[C@@H]4[C@@H]3CC[C@]3(C)[C@@H](C5=CC(=O)OC5)[C@@H](OC(C)=O)C[C@]43O)C2)OC(C)C1O (stereo partly specified) | < 10 | < 0.01 µM | < 10 | < 0.01 | < 0.01 | < 0.01 µM | < 10 | < 0.01 µM | < 0.01 | < 0.01 µM | < 0.01 | < 0.01 µM | < 0.01 | < 0.01 µM | < 10 | < 0.01 | < 10 | < 0.01 µM | < 10 | < 0.01 µM
C=CCN=C(N/N=C/c1ccc([N+](=O)[O-])o1)NS(=O)(=O)c1cc(C(=O)Nc2ccc(Cl)cc2)c(Cl)cc1SC |  | > 100 µM | 4940 | > 100 | > 100 | > 100 µM | 1570 | 14.1 µM | 2.13 | > 100 µM | 2.85 | > 100 µM | 5.96 | > 51.5 µM | 3930 | > 100 | 2810 | > 27.7 µM | > 49900 | > 100 µM
COc1cc(OC)c(C/C=C/c2ccccc2)cc1O |  | 50.7 µM |  | 26.5 |  | 31.4 µM |  | 31.1 µM |  | 35.6 µM |  | 34.4 µM |  | 23.7 µM |  | 30.4 |  | 29 µM |  | 29.6 µM
C[C@H]1CC[C@@]2(NC1)O[C@H]1C[C@H]3[C@@H]4CC[C@H]5C[C@@H](O)CC[C@]5(C)[C@H]4CC[C@]3(C)[C@H]1[C@@H]2C | 33300 | 50 µM and > 100 µM |  | > 100 | 8.71 | 22.4 µM and > 100 µM | 9610 | 22.2 µM and > 100 µM | 12.5 | 42 µM and > 100 µM | 14 | 50 µM and > 100 µM | 12.3 | 50 µM and > 100 µM | 11900 | 33.6 | 9420 | 17 µM and > 100 µM | 14200 | 44.6 µM and > 100 µM
Cc1c(C(=O)Nc2ccccc2)sc2ncn(Cc3cccc(Cl)c3)c(=O)c12 | > 100000 | > 100 µM | 16500 | 40.5 | 25.7 | > 100 µM | 41000 | > 100 µM | 16.5 | 49.6 µM | 73.2 | > 100 µM | 42.9 | > 100 µM | 34000 | > 100 | 18800 | > 100 µM | 13000 | 39.7 µM
CN(C)CCN1C(=O)c2c(c3c4ccccc4n4c3c3c2c2ccccc2n3C2CC(O)C(O)C4(C)O2)C1=O (stereo unspecified) | 1230 | 7.1 µM | 2600 | 11.9 | 8.2 | 23.3 µM | 2270 | 11.1 µM | 2.05 | 9.48 µM | 1.46 | 8.76 µM | 2.39 | 12.1 µM | 1040 | 7.29 | 767 | 3.93 µM | 1710 | 13.9 µM

— PubChem BioAssay (NCI)
